Where a name gives a salt, the structure may show the parent alone. Read-outs that look alike come from different tables or passages of the source.
Experiments:
[1] = cited from earlier work
[2] = test system: gastric secretion of patients of middle age group; assay: Clinical test: effects of maximum doses upon gastric secretion of patients; type: in vivo, human; conditions: for Hourly HCl output: 15 observations
Source text: (§1) Special attention was paid to side effects and the reproductibility of the secretory response after repeated administrations of the drug.

[3] = test system: gastric secretion of patients with duodenal ulceration; assay: Clinical comparison in patients with duodenal ulceration; type: in vivo, human
Source text: as §1
Histamine and Pentagastrin Upon Main Gastric Secretion
Characteristics of Patients With Duodenal Ulceration

gastric secretion [4] = conditions: cited from earlier work; for secretory effect per os: introduced per os, clinical conditions, inactivated by the liver and enzymes
[5] = test system: gastric secretion of patients; assay: Clinical comparison of thidazine with simple histamine test; type: in vivo, human; conditions: 20 patients; thidazine 1.5 mg/kg parenteral, histamine 0.01 mg/kg; >0.05
Source text: as §1

dog's stomach = assay: Gastric secretion in dogs, administration per os; type: in vivo; conditions: thidazine 100 mg per head (parenterally and per os), histamine 10 and 20 mg, histalog 50 and 100 mg
Description: (§2) Chronic experiments were performed on male dogs weighing 20 to 25 kg and having a gastric fistula; prior to experiments, the animals were starved for 18 hours.

total acidity = assay: Clinical reproducibility of secretory response (total acidity); type: in vivo, human; conditions: 0.01 mg/kg hypodermic
Source text: as §1
Reproducibility of Secretory Response to Introduction
of Thidazine and Histamine with Reference to Total
Acidity Values (each group of patients includes 10 persons)
^(x) Percentage of difference is the relationship of the difference
between the total acidity values registered in the first and second tests
of a patient to the greater of these values.

arterial pressure [6] = assay: Arterial pressure in rabbits; conditions: intravenous, thidazine 0.1 mg/kg, equimolar doses of histamine and histalog
Description: In a series of experiments of 18 rabbits weighing 2.5 to 3.5 kg, each having the common carotid artery in a cutaneous flap, the preparations were injected intravenously.

H2 -receptors [7] = target: H2 -receptors (Rattus norvegicus, UniProt P25102); conditions: uterus horn
Sequence of H2 -receptors (Rattus norvegicus, UniProt P25102) (P25102 whole entry): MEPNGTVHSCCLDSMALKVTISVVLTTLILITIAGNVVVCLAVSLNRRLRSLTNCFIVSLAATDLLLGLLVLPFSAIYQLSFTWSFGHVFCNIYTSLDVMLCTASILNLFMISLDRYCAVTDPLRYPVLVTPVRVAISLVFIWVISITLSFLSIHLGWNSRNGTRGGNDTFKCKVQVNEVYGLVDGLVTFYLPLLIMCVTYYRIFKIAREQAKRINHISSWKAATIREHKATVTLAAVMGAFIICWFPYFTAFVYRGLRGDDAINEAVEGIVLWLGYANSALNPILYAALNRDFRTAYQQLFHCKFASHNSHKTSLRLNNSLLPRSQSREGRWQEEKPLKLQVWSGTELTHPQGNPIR
Description: Contractions of an isolated horn of uterus of a rat due to the effect of acetylcholine in a concentration of 1.10^-6 M were recorded on a paper tape.

H2 -ceptors = H2 -ceptors (Canis lupus familiaris, UniProt P17124); assay: Gastric secretion in dogs with gastric fistula, intramuscular injection; conditions: animal (dog)
Sequence of H2 -ceptors (P17124 whole entry): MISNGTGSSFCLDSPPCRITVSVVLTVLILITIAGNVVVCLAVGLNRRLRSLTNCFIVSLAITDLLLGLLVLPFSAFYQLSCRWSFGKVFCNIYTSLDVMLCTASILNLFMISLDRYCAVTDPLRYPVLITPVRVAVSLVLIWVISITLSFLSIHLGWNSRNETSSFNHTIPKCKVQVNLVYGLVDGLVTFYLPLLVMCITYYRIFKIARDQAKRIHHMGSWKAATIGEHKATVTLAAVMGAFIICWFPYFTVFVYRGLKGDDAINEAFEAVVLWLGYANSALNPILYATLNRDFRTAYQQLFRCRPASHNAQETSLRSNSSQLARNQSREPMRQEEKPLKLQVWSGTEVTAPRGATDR
Description: as §2
The gastric juice was analyzed for titratable acidity and proteolytic activity. The hydrochloric acid output was calculated in milliequivalents (mEq) and that of pepsin in milligrams.

arterial pressure [8] = assay: Arterial pressure in anesthetized cats; conditions: in vivo, iv, 0.1 mg/kg
Description: These experiments were performed on 11 cats weighing 2.5 to 4.0 kg and anesthetized with urethane-chlorazol mixture containing 60 mg/kg of chlorazol and 600 mg/kg of urethane. The arterial pressure was measured in the common carotid artery with the aid of a mercury pressure gauge.

gastric secretion [9] = type: in vivo, human; conditions: hypodermic or intramuscular
Source text: as §1
The clinical investigation also helped to determine effective doses of the proposed preparation for submaximum and maximum tests and different forms of administration.

H1 -receptors = target: T1, H1 -receptors (Cavia porcellus, UniProt P31389); assay: Contraction of isolated ileum; conditions: guinea pig ileum; read-out: pD2 value in relation to H1 -receptors (converted)
T1 construct: from tissue; host or cells: isolated guinea pig ileum
T1 sequence (P31389 whole entry): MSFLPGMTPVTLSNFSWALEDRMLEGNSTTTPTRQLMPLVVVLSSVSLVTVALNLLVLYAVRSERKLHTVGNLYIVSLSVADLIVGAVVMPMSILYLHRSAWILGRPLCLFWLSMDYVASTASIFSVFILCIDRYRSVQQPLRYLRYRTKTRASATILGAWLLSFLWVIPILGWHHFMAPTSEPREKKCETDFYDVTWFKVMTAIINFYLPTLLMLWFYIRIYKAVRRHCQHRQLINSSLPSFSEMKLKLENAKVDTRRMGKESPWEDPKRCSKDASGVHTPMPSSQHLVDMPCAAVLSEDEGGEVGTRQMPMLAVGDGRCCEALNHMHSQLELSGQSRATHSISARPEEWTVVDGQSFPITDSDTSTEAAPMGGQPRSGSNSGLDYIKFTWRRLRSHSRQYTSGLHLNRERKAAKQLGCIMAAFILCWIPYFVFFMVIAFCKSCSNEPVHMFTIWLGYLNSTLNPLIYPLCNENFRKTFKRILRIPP

[10] = test system: cardiovascular system (hypotension); conditions: relative to histamine; cited from earlier work
H2 -receptors [11] = target: T2, H2 -receptors (Cavia porcellus, UniProt P47747); assay: Heart rate of isolated auricles; conditions: isolated guinea pig auricles; read-out: pD2 value, H2 -receptors (heart rate) (converted)
T2 construct: from tissue; host or cells: isolated guinea pig auricles (atria)
T2 sequence (P47747 whole entry): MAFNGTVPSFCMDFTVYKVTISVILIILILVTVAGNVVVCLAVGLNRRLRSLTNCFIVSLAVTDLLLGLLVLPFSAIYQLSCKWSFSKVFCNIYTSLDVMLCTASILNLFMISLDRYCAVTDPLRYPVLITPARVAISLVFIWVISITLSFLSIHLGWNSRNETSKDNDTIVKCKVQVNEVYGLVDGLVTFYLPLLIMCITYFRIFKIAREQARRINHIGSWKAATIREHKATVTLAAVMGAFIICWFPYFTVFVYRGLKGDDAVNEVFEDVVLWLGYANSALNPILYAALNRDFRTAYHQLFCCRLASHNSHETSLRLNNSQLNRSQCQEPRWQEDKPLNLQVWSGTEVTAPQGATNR
Description: Changes in the heart rate were measured, dose-response curves were plotted, and pD2 values were calculated.

H2 -receptors [12] = assay: Prevention of thidazine-induced gastric secretion by an H2 -antagonist; type: in vivo, dog; conditions: dogs, methiamide 30 mg/kg before thidazine 2 mg/kg intramuscular
[13] = Physical properties of the dichlorohydrate; type: physicochemical
Source text: The dichlorohydrate of this compound is white-yellowish crystalline powder. […] Solution of this compound in 0.01 M of hydrochloric acid at a concentration of 10^-4 M has a characteristic absorption spectrum in the UV range with a maximum of 245±±1 nanometers.

For `CSCC[C@H](NC(=O)[C@H](Cc1c[nH]c2ccccc12)NC(=O)CCNC(=O)OC(C)(C)C)C(=O)N[C@@H](CC(=O)O)C(=O)N[C@@H](Cc1ccccc1)C(N)=O` [pentagastrin, reference compound], the side effects ([1]; patients) is given as “can produce allergic and anaphylactic reactions as a result of repeated administrations”, the “HCl Concentration” value ([2]; 1st hour (basal secretion)) is given as 35.3 milliequivalents per liter and the “HCl Concentration” value ([2]; 2nd hour (response to drug)) is given as 94.0 milliequivalents per liter. The “Gastric Juice, Δ%” value ([2]; 2nd versus 1st hour) was “+63.7%”, the “Hourly HCl output, Δ%” value ([2]; 2nd versus 1st hour) was “+345.9%” and the “Hourly HCl output” value ([2]; 1st hour (basal secretion)) was 3.7 milliequivalents per hour. For the same compound, the “Hourly HCl output” value ([2]; 2nd hour (response to drug)) was 16.5 milliequivalents per hour, the “Gastric Juice” value ([2]; pentagastrin 6 mg/kg, 1st hour (basal secretion)) was 106.3 ml per hour and the “Gastric Juice” value ([2]; pentagastrin 6 mg/kg, 2nd hour (response to drug)) was 174.0 ml per hour. The “HCl Concentration, Δ%” value ([2]; pentagastrin 6 mg/kg, 2nd versus 1st hour) was “+166.3%”, the “Chymosin Output” value ([3]; 1st hour (basal secretion)) was 157.3 ± 5.9 units per hour and the “Pepsin Output” value ([3]; 1st hour (basal secretion)) was 3.3 ± 0.8 units per hour. For the same compound, the “Secretion, milliequivalents per hour” value ([3]; 1st hour (basal secretion)) was 7.4 ± 0.8 Milliequivalents per hour, the “Pepsin Output” value ([3]; 2nd hour) was 19.3 ± 3.8 units per hour and the “Secretion, milliequivalents per hour” value ([3]; 2nd hour) was 24.8 ± 1.5 Milliequivalents per hour. For the same compound, the “secretory effect per os” value (gastric secretion [4]) was “no secretory effect is produced”, the “duration of effect of a single dose” value (gastric secretion [4]; single dose) was “does not last long” and the level of secretion (gastric secretion [4]; sufficient dose) was “can produce a maximum level of secretion”.
In the case of `Cc1[nH]cnc1CCN` [5-methylhistamine], the “secretory effect per os” value (gastric secretion [4]) is given as “no secretory effect is produced”.
With `NCCc1c[nH]cn1` [histamine, reference compound] the “Free Acidity” value [5] was 81.7+21 units, the “HCl Output” value [5] was 12+0.4 milliequivalents per hour and the “Peak HCl Output” value [5] was 8.8+0.2 milliequivalents. The “Total Acidity” value [5] was 92.0+23 units, the “gastric secretion after administration per os” value (dog's stomach) was “no gastric secretion” and the “% of difference (fluctuations) of total acidity, first and second tests” value (total acidity) was 0-53%. For the same compound, the “Average difference of total acidity” value (total acidity) was 33%, the side effects ([1]; patients) was “reddening of the skin, nausea, vomiting, headache, dizziness, bronchospasm, edema of the rima vocalis, hypotension, and shocks” and the “reduction of arterial pressure” value (arterial pressure [6]) was 40 mm of mercury. The “Chymosin Output” value ([3]; 1st hour (basal secretion)) was 16.0 ± 0.008 units per hour, the “Pepsin Output” value ([3]; 1st hour (basal secretion)) was 3.7 ± 1.2 units per hour and the “Secretion, milliequivalents per hour” value ([3]; 1st hour (basal secretion)) was 7.0 ± 1.2 Milliequivalents per hour. For the same compound, the “Chymosin Output” value ([3]; 2nd hour) was 16.4 ± 0.04 units per hour, the “Pepsin Output” value ([3]; 2nd hour) was 4.8 ± 3.0 units per hour and the “Secretion, milliequivalents per hour” value ([3]; 2nd hour) was 19.4 ± 1.6 Milliequivalents per hour. For the same compound, the Emax (H2 -receptors [7]) was 100%, the “production of maximum level of hydrochloric acid secretion in the stomach” value (H2 -ceptors) was “can produce a maximum level of hydrochloric acid secretion” and the “secretory effect per os” value (gastric secretion [4]) was “no secretory effect is produced”. The “reduction of arterial pressure” value (arterial pressure [8]) was 100 mm of mercury.
In the case of `NCCc1cc[nH]n1` [histalog, 3-(5)-(2-aminoethyl)pyrazole, reference compound], the “gastric secretion after administration per os” value (dog's stomach) is listed as “no gastric secretion”, the side effects ([1]; in vivo) is listed as “side effects are observed far less frequently than in the case of histamine” and the “dose for maximum secretion test” value (gastric secretion [9]) is listed as 1.7 mg/kg. For the same compound, the “dose for submaximum secretion test” value (gastric secretion [9]) was 0.9 mg/kg, the Emax (H2 -receptors [7]) was 16% and the EC50 (H1 -receptors) was 58.9 µM. The “production of maximum level of hydrochloric acid secretion in the stomach” value (H2 -ceptors) was “can produce a maximum level of hydrochloric acid secretion”, the “hypotensive effect, times as low as that of histamine” value [10] was 700 times and the “secretory response of the stomach” value (gastric secretion [4]; humans, parenteral, 1 to 5 mg/kg) was “maximum secretory response of the stomach”. The “secretory effect per os” value (gastric secretion [4]) was “no secretory effect is produced”, the “capability of stimulating gastric secretion, times less effective than histamine” value (gastric secretion [4]; relative to histamine) was 70 times and the EC50 (H2 -receptors [11]) was 15.8 µM. The “reduction of arterial pressure” value (arterial pressure [8]) was 30 mm of mercury.
With `CNC(=S)NCCSCc1nc[nH]c1C` [methiamide] the “prevention of thidazine secretory effect” value (H2 -receptors [12]) was “completely prevented”.
In the case of `NCCc1nnc(N)s1` [dihydrochloride of 2-amino-5-(2-aminoethyl)-1,3,4-thiadiazole], the “stability of aqueous solution” value [13] is reported as “stable over prolonged periods of time”, the hygroscopicity ([13]; powder) is reported as “poor hygroscopicity” and the “reaction (acidity) of solution” value ([13]; solutions before neutralization to pH 6 to 7) is reported as “strongly acidic reaction”. The solubility in water ([13]; water) was “readily soluble in water”.
For `Cl.Cl.NCCc1c[nH]cn1` [Histamine dichloride, reference compound], the “dose for maximum secretion test” value (gastric secretion [9]) was 0.025 mg/kg and the “dose for submaximum secretion test” value (gastric secretion [9]) was 0.008 mg/kg.

From US4211764A, “Gastric secretion stimulation with 2-amino-5-(2-aminoethyl)-1,3,4-thiadiozole” (priority 1978, dated 1980)
